Results from the NIST ThermoML archive (doi:10.1016/j.tca.2014.07.022).

Assay: xn = mol fraction of the nth substance listed
Conditions: 100 kPa, Liquid; for viscosity: Concentric cylinders viscometry; for mass density: Vibrating tube method

CCCC(C)O (centres undefined) [pentan-2-ol] + CC(=O)CC(C)C
Conditions	mass density [kg/m3]	viscosity [mPa·s]
293.15 K, x2 = 0	809.3	3.974
293.15 K, x2 = 0.0812	807.6	2.699
293.15 K, x2 = 0.1588	806.2	2.09
293.15 K, x2 = 0.2391	804.9	1.709
293.15 K, x2 = 0.3508	803.3	1.366
293.15 K, x2 = 0.4441	802.4	1.14
293.15 K, x2 = 0.561	801.4	0.924
293.15 K, x2 = 0.6484	800.9	0.818
293.15 K, x2 = 0.741	800.7	0.74
293.15 K, x2 = 0.8528	800.5	0.671
293.15 K, x2 = 0.9406	800.7	0.63
298.15 K, x2 = 0	805.3	3.277
298.15 K, x2 = 0.0812	803.5	2.326
298.15 K, x2 = 0.1588	801.9	1.83
298.15 K, x2 = 0.2391	800.6	1.496
298.15 K, x2 = 0.3508	799	1.202
298.15 K, x2 = 0.4441	797.9	1.018
298.15 K, x2 = 0.561	796.9	0.85
298.15 K, x2 = 0.6484	796.4	0.767
298.15 K, x2 = 0.741	796	0.69
298.15 K, x2 = 0.8528	795.9	0.63
298.15 K, x2 = 0.9406	795.9	0.59
303.15 K, x2 = 0	801.2	2.717
303.15 K, x2 = 0.0812	799.3	2.029
303.15 K, x2 = 0.1588	797.7	1.619
303.15 K, x2 = 0.2391	796.3	1.333
303.15 K, x2 = 0.3508	794.6	1.078
303.15 K, x2 = 0.4441	793.5	0.928
303.15 K, x2 = 0.561	792.4	0.787
303.15 K, x2 = 0.6484	791.9	0.711
303.15 K, x2 = 0.741	791.5	0.641
303.15 K, x2 = 0.8528	791.3	0.589
303.15 K, x2 = 0.9406	791.4	0.553
308.15 K, x2 = 0	797	2.282
308.15 K, x2 = 0.0812	795	1.757
308.15 K, x2 = 0.1588	793.4	1.429
308.15 K, x2 = 0.2391	791.9	1.185
308.15 K, x2 = 0.3508	790.1	0.966
308.15 K, x2 = 0.4441	788.9	0.842
308.15 K, x2 = 0.561	787.8	0.728
308.15 K, x2 = 0.6484	787.2	0.663
308.15 K, x2 = 0.741	786.8	0.6
308.15 K, x2 = 0.8528	786.6	0.554
308.15 K, x2 = 0.9406	786.7	0.526
313.15 K, x2 = 0	792.7	1.931
313.15 K, x2 = 0.0812	790.6	1.52
313.15 K, x2 = 0.1588	788.9	1.249
313.15 K, x2 = 0.2391	787.4	1.051
313.15 K, x2 = 0.3508	785.6	0.876
313.15 K, x2 = 0.4441	784.3	0.773
313.15 K, x2 = 0.561	783.2	0.675
313.15 K, x2 = 0.6484	782.6	0.617
313.15 K, x2 = 0.741	782.2	0.561
313.15 K, x2 = 0.8528	782	0.522
313.15 K, x2 = 0.9406	782.1	0.497
318.15 K, x2 = 0	788.4	1.647
318.15 K, x2 = 0.0812	786.3	1.329
318.15 K, x2 = 0.1588	784.5	1.116
318.15 K, x2 = 0.2391	782.9	0.949
318.15 K, x2 = 0.3508	781	0.8
318.15 K, x2 = 0.4441	779.8	0.712
318.15 K, x2 = 0.561	778.6	0.627
318.15 K, x2 = 0.6484	778	0.577
318.15 K, x2 = 0.741	777.6	0.53
318.15 K, x2 = 0.8528	777.3	0.492
318.15 K, x2 = 0.9406	777.4	0.465
323.15 K, x2 = 0	784	1.419
323.15 K, x2 = 0.0812	781.9	1.168
323.15 K, x2 = 0.1588	780	0.995
323.15 K, x2 = 0.2391	778.4	0.855
323.15 K, x2 = 0.3508	776.5	0.729
323.15 K, x2 = 0.4441	775.2	0.654
323.15 K, x2 = 0.561	774	0.583
323.15 K, x2 = 0.6484	773.4	0.543
323.15 K, x2 = 0.741	772.9	0.505
323.15 K, x2 = 0.8528	772.7	0.468
323.15 K, x2 = 0.9406	772.8	0.445
